Laboratory results published in patent US9796777B2, “Methods of treating malignant tumors” (Canimguide Therapeutics AB, priority 2007, dated 2017).

Key:
PBMC [1] = test: IL-2 induced proliferation of PBMC with albumin peptides in coated and uncoated tissue culture plates; format: cell-based, human; conditions: PBMC from healthy individuals; peptide 5 μg/ml final; 7 days
Description: A mixture of 1 mg/ml IgG in a solution of 9 mg/ml HSA in RPMI (HSA/IgG) was also prepared. 200 μl of HSA or HSA/IgG were then added to each well of the plate. The plates were incubated at 4° C. for 30 minutes after which the wells were washed twice with 200 μl of RPMI1640. The coated plates were used immediately. […] PBMC, isolated from healthy individuals, were diluted in RPMI/2% HSA and peptides were added directly to the cell suspension at a concentration of 10 μg/ml.

[2] = tested on: natural killer (NK) cells; test: Cytotoxic activity of natural killer (NK) cells against K562 (NKTEST, flow cytometry); format: cell-based, human; conditions: four healthy donors; peptides 10 ug/ml; effector:target ratio 40:1
Description: Mononuclear cells were separated by standard Ficoll-paque Plus (Pharmacia AB, Sweden) density gradient centrifugation from heparinized blood obtained from healthy donors. NK cell cytotoxic activity of the mononuclear cells was then tested using a commercial kit (NKTEST, Orpegen Pharma GmbH, Heidelberg, Germany) following the manufacturers protocol. Briefly, the kit contains cryopreserved, NK-sensitive target cells (K562) labelled with a lipophilic green fluorescent membrane dye, which enables discrimination of effector and target cells. After incubation with effector cells, killed target cells are identified by a DNA-stain, which penetrates and specifically stain the nuclei of dead target cells. This way the percentage of killed targets can be determined by flow cytometry. The mononuclear cells were pre-incubated for 30 min at 37° C. with the indicated peptides (peptides have been described previously) at 10 ug/ml. Target cells were then added, giving an effector:target ratio of 40:1, and the cell mixture incubated at 37° C. for 3-4 hours. Samples were analysed on a FACSCalibur (BD Biosciences, San Jose, Calif.).

PBMC [3] = test: LPS-induced IL-6 production by PBMC, effect of peptides; format: cell-based, human
Description: 100 μl of culture medium consisting of RPMI1640 supplemented with 200 IU/ml penicillin, 200 μg/ml streptomycin, 4 mM L-glutamine (Sigma Chemical, Mo., US) and 20% fresh heat-inactivated autologous serum were added to un-coated or -pre-coated microtiter plates followed by 100 μl of PBMC suspension (5×10^4 lymphocytes) in RPMI/2% HSA with peptides at the indicated concentrations. Lipoplysaccharide (LPS, Sigma Chemical Co, MO, US) was added at a final concentration of 0.05 ng/ml. […] All assay conditions were set up in triplicate wells. Supernatants (SNs) were harvested after 24 hrs and residual cells were removed by centrifugation in a refrigerated centrifuge (Beckman) at 2600×g for 5 minutes. SNs were frozen and stored at −70° C. IL-6 in cell culture SNs was measured by ELISA using the DuoSet® ELISA development kit for human IL-6 (R&D Systems Europe, Ltd., Abingdon, UK) following the manufacturer's recommended procedures. The lower limit of detection was 3.1 pg/ml. Samples were analysed as mean of triplicate wells.

PBMCs = test: PHA-induced proliferation of PBMC in the presence of albumin peptides and/or dHSA; format: cell-based, human; conditions: PBMCs from two healthy controls; two PHA concentrations
Text: Venous blood was drawn from healthy volunteers or from cancer patients in glass vacuum tubes with acid dextrose citrate solution A as anti-coagulant (Vacutainer, Becton Dickinson, Franklin Lakes, N.J.). Erythrocytes were removed by sedimentation on 2% dextran T500 solution (Amersham Pharmacia Biotech AB, Uppsala, Sweden) in 0.9% NaCl (this step was omitted for cultures with PHA-stimulation-see below). […] For cell cultures with PHA-stimulation, PBMC were washed in Hank's Balanced Salt Solution (HBSS) with 10% autologous plasma instead of RPMI/2% HSA. […] The cell suspension was stained with Turk's solution and the number of lymphocytes and monocytes in the PBMC preparation were counted in a hemocytometer. PBMCs were suspended in RPMI/2% HSA and the cell concentration adjusted to 5×10^5 lymphocytes/ml.
100 μl of the cell suspension were seeded into round-bottomed microtiter plates (Corning, N.Y., USA) followed by 100 μl of culture medium consisting of RPMI 1640 (Flow Laboratories, Irvine, Scotland) supplemented with 200 IU/ml Penicillin, 200 μg/ml Streptomycin (Flow laboratories) and 20% heat inactivated autologous serum. Phytohemagglutinin (PHA-P, Sigma Chemical Co, St. Louis, Mo.) at a final concentration of 5 or 10 μg/ml was then added.
All culture conditions were set up in triplicate wells. […] Mean values of disintegrations per minute (dpm) of triplicates were used for the calculations.

[4] = target: T1, β2-integrin LFA-1 (CD11a) (Homo sapiens, UniProt P20701); test: Immunocytochemical staining of PBMC and THP-1 with anti-integrin (CD11a) antibody with or without albumin peptides; format: binding; conditions: for binding to LFA-1: Table 9 summary; for effect on binding of the LFA-1 antibody (HI 111) to LFA-1: mononuclear blood cells
T1 construct: endogenous in cells; host or cells: human PBMC (healthy controls, cancer patients) and THP-1 monocytic cell line (ATCC)
T1 sequence (P20701 26-1170): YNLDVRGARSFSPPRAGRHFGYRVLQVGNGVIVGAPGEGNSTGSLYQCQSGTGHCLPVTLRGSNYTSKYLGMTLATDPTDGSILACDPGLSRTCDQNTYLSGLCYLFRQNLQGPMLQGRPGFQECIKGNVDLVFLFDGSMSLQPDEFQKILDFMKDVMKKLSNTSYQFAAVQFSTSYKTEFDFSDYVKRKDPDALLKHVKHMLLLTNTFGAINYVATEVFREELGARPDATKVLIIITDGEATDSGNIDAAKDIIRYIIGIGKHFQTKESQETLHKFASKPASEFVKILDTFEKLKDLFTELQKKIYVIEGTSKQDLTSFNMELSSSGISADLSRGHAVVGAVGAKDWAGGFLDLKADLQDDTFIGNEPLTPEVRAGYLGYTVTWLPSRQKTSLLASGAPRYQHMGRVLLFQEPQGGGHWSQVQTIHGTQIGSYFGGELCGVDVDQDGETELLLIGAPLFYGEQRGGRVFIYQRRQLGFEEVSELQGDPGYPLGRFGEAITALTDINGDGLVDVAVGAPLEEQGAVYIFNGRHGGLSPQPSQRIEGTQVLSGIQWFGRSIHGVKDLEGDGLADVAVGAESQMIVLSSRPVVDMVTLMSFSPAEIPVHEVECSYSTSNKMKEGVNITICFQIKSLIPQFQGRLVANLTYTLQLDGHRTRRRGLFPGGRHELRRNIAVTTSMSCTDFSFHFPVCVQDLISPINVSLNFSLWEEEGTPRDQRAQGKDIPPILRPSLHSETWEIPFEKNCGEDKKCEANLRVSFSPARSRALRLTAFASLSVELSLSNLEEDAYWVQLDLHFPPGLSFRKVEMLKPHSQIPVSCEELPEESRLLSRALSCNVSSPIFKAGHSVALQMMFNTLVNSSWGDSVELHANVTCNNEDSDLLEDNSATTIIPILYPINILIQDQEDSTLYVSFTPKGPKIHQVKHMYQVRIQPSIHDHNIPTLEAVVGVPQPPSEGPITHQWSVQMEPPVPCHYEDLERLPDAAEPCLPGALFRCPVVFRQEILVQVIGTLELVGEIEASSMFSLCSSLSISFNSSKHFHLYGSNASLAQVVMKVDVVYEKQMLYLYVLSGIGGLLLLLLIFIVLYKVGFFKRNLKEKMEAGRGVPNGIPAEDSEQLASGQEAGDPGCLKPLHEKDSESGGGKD
T1 sequence (P05107 23-769 partner): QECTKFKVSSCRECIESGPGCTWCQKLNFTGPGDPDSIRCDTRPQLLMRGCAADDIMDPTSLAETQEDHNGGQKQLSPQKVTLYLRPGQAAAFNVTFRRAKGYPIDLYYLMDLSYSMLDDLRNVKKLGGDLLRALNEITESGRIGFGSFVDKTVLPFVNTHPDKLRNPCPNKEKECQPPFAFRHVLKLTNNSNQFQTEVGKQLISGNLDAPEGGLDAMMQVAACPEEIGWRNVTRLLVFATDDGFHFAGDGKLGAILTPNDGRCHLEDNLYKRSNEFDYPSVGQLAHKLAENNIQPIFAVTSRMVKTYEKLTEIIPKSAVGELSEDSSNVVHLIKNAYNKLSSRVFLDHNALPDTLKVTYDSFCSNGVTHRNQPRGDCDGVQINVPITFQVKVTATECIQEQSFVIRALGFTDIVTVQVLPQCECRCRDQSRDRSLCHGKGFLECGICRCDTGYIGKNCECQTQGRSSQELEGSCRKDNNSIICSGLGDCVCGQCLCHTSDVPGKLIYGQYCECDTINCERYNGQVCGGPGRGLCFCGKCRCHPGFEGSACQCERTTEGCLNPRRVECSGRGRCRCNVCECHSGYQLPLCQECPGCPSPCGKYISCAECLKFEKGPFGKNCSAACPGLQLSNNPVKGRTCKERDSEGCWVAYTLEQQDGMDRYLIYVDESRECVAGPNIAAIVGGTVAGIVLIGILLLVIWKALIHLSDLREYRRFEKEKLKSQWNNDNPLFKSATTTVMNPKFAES
Description: Cytospin preparations of mononuclear blood cells from healthy controls, cancer patients and a monocytic cell line, THP-1, were prepared (as described under materials and methods), dried and stored at −70° C. In the immunocytological staining, unspecific staining was blocked by incubation with 10% human AB serum. Some of the slides were preincubated for 60 minutes with albumin peptides at a concentration of 40 μg/ml, added to this 10% AB serum, as indicated in the FIG. 8 A-F. The staining procedure was then continued as described in material and methods. The staining intensity of slides stained with and without preincubation with the peptides was recorded semi quantitatively using a standard light microscope.
PBMC were separated as described above. Cultured THP-1 cells (obtained from the American Type Culture Collection through LGL Nordic AB, Sweden) were carefully washed and suspended in RPMI1640. PBMC and THP-1 were immediately spun down on pre-cleaned microscope slides in a Shandon Cytospin (Shandon Scientific Ltd, UK) at 1000 RPM for 7 min at 2.5 or 5×10^4 cells per slide. The slides were left to dry at room temperature over night, after which they were wrapped in parafilm and stored at −70° C. Immediately before use, the cytospins were thawed and fixed with acetone for 5 min at room temperature. The cytospins were first blocked with 10% normal human AB-serum with and without albumin peptides (40 ␣g/ml) for 1 h before staining. Primary antibody, consisting of a monoclonal mouse anti-human CD11a (clone HI111, BD Biosciences) diluted in Tris buffered saline (TBS, pH 7.6) at 5 μg/ml (THP-1) or 1 µg/ml (PBMC), was added. The slides were incubated for 30 min and then washed in TBS followed by Envision-Alkaline Phosphatase (Dako Norden A/S, Denmark) for 30 min. After additional washing in TBS, the slides were incubated in alkaline phoshatase substrate consisting of Fast Red TR salt (Sigma), naphtol AS-MX (Sigma) and 5 mM levamisol (Sigma) to block endogenous alkaline phosphatase activity, for 20 min followed by washing in TBS. They were then counterstained in Mayer's haematoxylin for 1 minute and mounted in Glycergel (Dako Norden NS). Monoclonal mouse IgG1 against an irrelevant antigen (Aspergillus niger glukosoxidase, Dako Norden NS) was used as a negative control. All incubations were performed at room temperature in a moist chamber.
FIG. 24. Inhibition of the binding of anti-LFA-1, mab HI111, to mononuclear blood cells by 3028 peptide and fragments 3325 and 3218. A standard immunohistochemical staining procedure using acetone fixation, 10% human AB-serum for blocking, incubation with HI 111 and a secondary antibody (Ultravision, an alkaline phosphate conjugated polymer attached to Fab-fragments of goat anti-mouse Ig), followed by development with Fast Red. The slides were then mounted in Glycergel. Preincubation with peptides added to the AB serum was as follows: A. No peptide added, B. peptide 3028, C. The C-terminal part (3218), and D. The N-terminal part (3325).

PBMC [5] = test: Human ex vivo model: IL-2 induced proliferation of PBMC in the presence of albumin peptides; conditions: alone or in combination
rabbit anti-3028 = test: Inhibition of rabbit anti-3028 ELISA by albumin peptides; format: binding; conditions: Table 9 summary
Description: To test if albumin peptides inhibited the binding of the rabbit anti-3028 to 3028 coated wells, rabbit antisera, diluted 1/1000 000 in ELISA reagent diluent, was pre-incubated for 1 hr at room temperature with the indicated concentrations of the peptides. 100 μl of the […], or, alternatively, the monoclonal antibody mixed with peptides, was then added to 3028 coated wells and the ELISA carried out as described.

Substance | effect on IL-2 induced proliferation (PBMC [1]) | effect on percent specific lysis of K562 target cells [2] | effect on LPS induced IL-6 production (PBMC [3]; melanoma patients) | effect on LPS induced IL-6 production (PBMC [3]; renal cell carcinoma patient) | effect on LPS induced IL-6 production (PBMC [3]; two healthy controls) | effect on dHSA modulated PHA stimulated proliferation (PBMCs) | effect on LPS induced IL-6 production (PBMC [3]; healthy control PBMC1) | effect on LPS induced IL-6 production (PBMC [3]; healthy control PBMC 2) | binding to LFA-1 [4] | effect on binding of the LFA-1 antibody (HI 111) to LFA-1 [4] | neutralisation of the inhibitory effect of peptide 3028 on IL-2 induced proliferation (PBMC [5]) | binding to affinity purified antibodies (rabbit anti-3028)
ELFEQLGEYKFQNALLVR [peptide 3027] | no statistically significant activity | Inhibition was not seen | stimulated one of the melanoma patients | stimulatory effect | slightly stimulatory in one of the controls and had an inhibitory effect in the other |  |  |  |  |  |  | 
NEETFLKKYLYEIARRHPYFYAP [peptide 3026] | no statistically significant activity |  |  | stimulatory effect |  | inhibited the stimulatory activity of dHSA | clear biphasic effect | no certain effect |  |  |  | 
VFDEFKPLVE [peptide 3325] |  |  |  |  |  |  |  |  | Weak binding | inhibit the binding of mAb HI 111 to LFA-1 | not neutralised | 
peptide 3218: C-terminal part of peptide 3028 (EPQNLIK) |  |  |  |  |  |  |  |  | Weak binding | inhibit the binding of mAb HI 111 to LFA-1 | not neutralised | Does not bind
